According to article PMC8218918, “The Cyr61 Is a Potential Target for Rotundifuran, a Natural Labdane-Type Diterpene from Vitex trifolia L., to Trigger Apoptosis of Cervical Cancer Cells” (Oxidative Medicine and Cellular Longevity, 2021):

Target: T1, Cyr61 (Homo sapiens, UniProt O00622)
T1 construct: gene CCN1; Cyr61 protein (Mammalian, C-Fc)
T1 sequence (O00622 25-381): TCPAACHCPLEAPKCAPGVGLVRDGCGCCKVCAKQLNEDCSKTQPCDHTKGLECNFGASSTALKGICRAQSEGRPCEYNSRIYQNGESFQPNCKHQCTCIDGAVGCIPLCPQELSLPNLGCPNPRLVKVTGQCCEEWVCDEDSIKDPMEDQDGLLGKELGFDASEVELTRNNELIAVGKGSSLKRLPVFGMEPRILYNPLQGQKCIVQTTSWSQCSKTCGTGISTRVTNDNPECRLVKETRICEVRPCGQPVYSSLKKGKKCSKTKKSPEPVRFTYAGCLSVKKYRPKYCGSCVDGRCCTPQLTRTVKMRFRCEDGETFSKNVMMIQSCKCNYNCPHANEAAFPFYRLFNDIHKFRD
Experiment: Microscale thermophoresis with RED-NHS labelled recombinant Cyr61; supported by DARTS and CETSA in HeLa cells
Assay type: binding

CC(=O)O[C@@H]1C[C@@H](C)[C@](O)(CCc2ccoc2)[C@@]2(C)CCCC(C)(C)[C@H]12 [RTF, Rotundifuran]
Kd: 3.8 ± 4.5 µM
